# Experimental data: patent publication US20080051464A1, “Protein phosphatase inhibitors” (The Cleveland Clinic Foundation, priority 2006, published 2008)
# How the values were obtained:
# [1] = target: T1, recombinant SHP-1 (Homo sapiens, UniProt P29350); assay: rapid in vitro SHP-1 PTPase assay (DIFMUP substrate); format: biochemical; conditions: 1 μg/well; FIG. 12A
# T1 construct: Recombinant protein of SHP-1 PTPase catalytic domain was described
# T1 sequence (P29350 244-515 limits assumed): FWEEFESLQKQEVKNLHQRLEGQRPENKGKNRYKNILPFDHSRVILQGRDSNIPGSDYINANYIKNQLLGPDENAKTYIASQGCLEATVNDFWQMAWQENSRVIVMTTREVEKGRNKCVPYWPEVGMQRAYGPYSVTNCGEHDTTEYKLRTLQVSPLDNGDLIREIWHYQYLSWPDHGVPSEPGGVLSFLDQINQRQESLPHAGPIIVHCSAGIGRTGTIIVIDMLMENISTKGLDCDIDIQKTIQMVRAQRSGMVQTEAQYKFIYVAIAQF
# Description: Recombinant protein of SHP-1 PTPase catalytic domain was described and stored in Tris buffer (25 mM Tris, pH7.5, 1 mM EDTA, 2 μM 2-ME, 25% glycerol) at −80° C. Fluorescence substrate DIFMUP (6,8-difluoro-4 methylumbelliferyl phosphate) was purchased (Molecular Probes). SSG was reported previously (21-23) and stored at 4° C. in darkness prior to use. Human and mouse IFNγ ELISPOT Kit (R & D System), CD4^+ Cell Intracellular IFNγ Detection Kit (BD Bioscience) and CD8^+ Cell Intracellular IFNγ Detection Kit (BD Bioscience) were purchased from commercial sources. Human Jurkat T cell line (26) and murine B16 melanoma cell line (ATCC) were maintained in […] culture medium supplemented with 10% fetal calf serum (FCS). Antibodies against pLck-pY394 (Cell Signaling), pLck-pY505 (Cell Signaling), pZap70 (pY319, BD Biosciences), pSlp76 (pY128, BD Biosciences) and pLat (pY226, BD Biosciences) were purchased from commercial sources.
# (§1) A rapid SHP-1 PTPase assay was developed for screening the compounds in a commercial library of 34,000 drug-like small chemicals (Chembridge, Mass.). Briefly, compounds of the library (1 μg/well in 0.21 DMSO) were placed in 96-well plates (Falcon, 353072) and mixed with recombinant SHP-1 protein (0.1 μg/well) in 90 μl of HEPES buffer (50 mM HEPS, pH 7.5, 150 mM NaCl, 1 mM EDTA, 0.2 mM DTT and 0.1 mg/ml BSA). The plates were incubated at room temperature for 10 minutes prior to the addition of fluorescence substrate DIFMUP (40 μM stock in HEPES buffer, 10 μl/well) to initiate PTPase reaction. Upon completion of PTPase reaction at room temperature for 1 hr in darkness, fluorescence signal of individual wells were recorded using a Vector^2 Multilabel Counter (Vector, CA). They were compared to that of control SHP-1 PTPase reaction (˜10,000 units of fluorescence signal) in the absence of any compound (100%) for calculating relative SHP-1 inhibition induced by the compounds after subtracting the background signal (˜500 units of fluorescence signal) of the substrate.
# as §1, with “To evaluate their” for “A rapid”, “inhibitory activity,” for “PTPase assay was developed for screening”, “analogs” for “compounds in a commercial library of 34,000 drug-like small chemicals (Chembridge, Mass.). Briefly, compounds of the library”, “0.2 μl” for “0.21”, “aliquot individually to” for “placed in”, “(500” for “(˜500”
# [2] = test system: Jurkat cells; assay: Jurkat cell growth in culture (MTT assay); format: cell-based, human
# Description: (§2) FIG. 3 illustrates differential toxicity of L5 and L6. Jurkat cells were cultured in the absence or presence of lead compound #5 (L5) (A) or #6 (L6) (B) for 6 days prior to quantification of cell growth by MTT assays. Data represent mean ±SD of triplicate samples. Balb/c mice were treated with L5 (˜10 mg/kg body weight, s.c., daily, M-F/wk) for two weeks to assess its toxicity in vivo (C).
# (§3) L5, L6 and L6 analogs (Chembridge), mouse IFNγ ELISPOT Kit (R & D System) and antibody against pLck-pY394 or pERK1/2 (Cell Signaling) were purchased from commercial sources. Human Jurkat T cell line and murine B16 melanoma cell line (ATCC) and other cancer cell lines were maintained in […] culture medium supplemented with 10% fetal calf serum (FCS). The effects of chemical compounds on cancer cell growth in culture were quantified by MTT assays following our established procedures.
# [3] = toxicity of L5 in mice; format: in vivo, mouse; conditions: 10 mg/kg, daily, s.c., two weeks
# Description: as §2
# (§4) Spleens were harvested one hour post-treatment on day 4 and processed into splenocytes, which were used for assessing pLck levels by SDS-PAGE/Western blotting and for quantification of IFNγ+ cells by ELISPOT assays. Mice were also treated with L5 (˜10 mg/kg body weight, daily, s.c., n=2) to evaluate the toxicity of the compounds in vivo.
# [4] = test system: spleen pLck and IFNγ+ cells; assay: in vivo induction of spleen pLck and IFNγ+ cells in mice; set-up: species or system mouse
# Description: as §4
# [5] = test system: B16 melanoma cells; assay: B16 melanoma cell growth in culture (MTT assay); format: cell-based, mouse; conditions: doses up to 10 μg/ml, 5 days
# Excerpt: as §3
compound,measurement,setting,value
O=C1C=CC(=O)C(c2cc(Cl)ccc2Cl)=C1 [L5],inhibition of phosphatase activity of recombinant SHP-1,[1],completely or almost completely inhibited
same,toxicity against Jurkat cells in culture (summary),[2],marked toxicity
same,growth of Jurkat cells in culture,"[2]; ~30 ng-1 μg/ml, 6 days",not markedly affected
same,viability of mice,[3],all alive
same,effect on pLck,[4]; 1 mg/kg of body weight,only a minor effect
same,increase of splenocyte pLck,"[4]; ~3 mg/kg of body weight, s.c., daily, 4 days",~3.3 fold
same,increase of spleen IFNγ+ cells,"[4]; ~3 mg/kg, s.c., daily, 4 days",approximately 3 fold
same,direct toxicity against B16 cells,[5],little direct toxicity
